Activity calls are given as the source filed them. The rule behind the calls is not given here.
Tests used:
[1] = tested on: Hepatitis B virus; assay: Antiviral activity against hepatitis B viral in human HepG2(2.2.15) cells assessed as decrease in surface antigen HBsAg secretion at 25 ug/ml after 7 days; type: functional; conditions: HepG2 2.2.15, 168 h
[2] = tested on: Hepatitis B virus; assay: Antiviral activity against hepatitis B viral in human HepG2(2.2.15) cells assessed as decrease in surface antigen HBeAg secretion at 25 ug/ml after 7 days; type: functional; conditions: HepG2 2.2.15, 168 h
[3] = Antifibrotic activity in […] cells assessed as inhibition of acetaldehyde-stimulated cell growth at 50 uM/L; type: functional
[4] = tested on: Primary neuron; assay: Neuroprotective activity against serum-deprivation-induced neurotoxicity in rat primary cerebellar granule neuronal cells assessed as cell viability at 10 uM by MTT assay relative to control; type: functional, cell-based
[5] = tested on: PC-12; assay: Neuroprotective activity against serum-deprivation-induced neurotoxicity in rat PC12 cells assessed as cell viability at 10 uM after 48 hrs by MTT assay relative to control; type: functional, cell-based

SMILES	inhibition at 25 µg/mL [1]	inhibition at 25 µg/mL [2]	inhibition at 50 µM [3]	Activity [4]	Activity [5]
Nc1ccn([C@@H]2CS[C@H](CO)O2)c(=O)n1 [LAMIVUDINE]	10%	46%	–	–	–
O=c1oc2cc3c(cc2cc1[C@@H](CO)Cc1ccc2c(c1)OCO2)OCO3	57%	48%	71%	Active	Active
